{"source": "patent US20250144069A1", "about": "“BILOBALIDE DERIVATIVE COMPOUNDS FOR TREATING NEUROLOGICAL DISEASES AND CANCERS” (The Chinese University of Hong Kong, priority 2023, published 2025)", "key": {"[1]": {"test": "Single-dose CCK-8 cell viability screening (adherent cells)", "format": "cell-based, human", "details": "Homo sapiens, A549, 48 h, average of A549 and Jurkat % viability, 50 uM, 48 h"}, "A549 cells [2]": {"test_system": "A549 cells", "test": "Single-dose CCK-8 cell viability screening (adherent cells)", "format": "cell-based, human", "details": "A549 cells, 50 uM, 48 h, CCK-8"}, "Jurkat cells [3]": {"test_system": "Jurkat cells", "test": "Single-dose CCK-8 cell viability screening (suspension cells)", "format": "cell-based, human", "details": "Jurkat cells, 50 uM"}, "A549 cells [4]": {"test_system": "A549 cells", "test": "Dose-dependent CCK8 viability assay", "format": "cell-based, human", "method": "(§1) In this example, dose-dependent CCK8 Viability assay was performed to determine the IC50 (the concentration of compound to achieve 50% viability) of several of the hit compounds identified from Example 2. A variety of cell lines were used: • Jurkat cells: Human leukemia • A549 cells: Human NSCLC • KP-1 cells: Mouse NSCLC with KRAS and P53 mutations • MCF-7 cells: Human breast cancer\n(§2) Method for Adherent Cells (A549, MCF-7 and KP-1 Cells)\n(§3) 5000 cells/100 uL were seeded in 96-well plates and incubate at 37° C.+5% CO2 overnight. Media were replaced with 100 uL of compound per well in 6 replicates in a series of 2-fold dilutions. The following controls were prepared.\n(§4) Blank control: 100 uL 0.1% DMSO in media with no cells per well.\n(§5) Positive control: 100 uL of 10 uM 5-flurouracil per well.\n(§6) Negative control: 100 uL of 0.1% DMSO in media per well.\n(§7) Each 96-well plate included 1 compound in 7 concentrations and a complete set of controls (in 6 replicates).\n(§8) Cells were incubated at 37° C.+5% CO2 for 46 hours. 10 uL of CCK8 solution was added to each well. Cells were incubated at 37° C.+5% CO2 for 2 hours. Absorbance at 450 nm was measured using a multiplate reader.\n(§9) Viability was calculated using the equation: […]"}, "KP-1 cells": {"test_system": "KP-1 cells", "test": "Dose-dependent CCK8 viability assay", "format": "cell-based", "details": "Mus musculus, 48 hours", "method": "as §1, §2, §3, §4, §5, §6, §7, §8, §9"}, "MCF-7 cells": {"test_system": "MCF-7 cells", "test": "Dose-dependent CCK8 viability assay", "format": "cell-based", "details": "Homo sapiens, MCF7, 48 hours", "method": "as §1, §2, §3, §4, §5, §6, §7, §8, §9"}, "Jurkat cells [5]": {"test_system": "Jurkat cells", "test": "Dose-dependent CCK8 viability assay", "format": "cell-based", "details": "Homo sapiens, 48 hours", "method": "as §1\nMethod for Suspension Cells (Jurkat Cells)\n5000 cells/90 uL were seeded in 96-well plates. 10 uL of compound (10×) in various concentrations was added to each well in 6 replicates. The following controls were prepared.\nBlank control: 10 uL 1% DMSO in media with no cells per well.\nPositive control: 10 uL of 100 uM 5-flurouracil (10×) per well.\nNegative control: 10 uL of 1% DMSO in media (10×) per well.\nNote: Each 96-well plate can test 1 compound in 7 concentrations with a complete set of controls (in 6 replicates)\nas §8\nViability was calculated using this equation: […]"}, "NCI-60 cell line panel": {"test_system": "NCI-60 cell line panel", "test": "NCI-60 Human Tumor Cell Lines Screen, one-dose screen (SRB)", "format": "cell-based", "details": "48 hours", "description": "In this example, the cytotoxic effect of DW192 was assess via the NCI-60 Human Tumor Cell Lines Screen, provided by the Developmental Therapeutics Program (DTP) of the National Cancer Institute (NCI) in the United States. This screening helps to identify and characterize the cytotoxic effect of compounds on 60 different human cancer cell lines, including leukemia, melanoma, and cancers of the lung, colon, brain, ovary, breast, prostate and kidneys. The screening comprised of two assays: one-dose screen and five-dose screen. In one-dose screen, 10 μM of DW192 was tested for 48 hours. In five-dose screen, four, 10-fold of ½ log serial dilutions were tested for 48 hours.\nMethod (Extracted from the NCI-60 Website)\nCells were seeded into 96-well plates in 100 uL at plating densities ranging from 5,000 to 40,000 cells/well depending on the doubling time of individual cell lines. Plates were incubated at 37° C.+5% CO2+95% air+100% relative humidity for 24 hours before adding compounds. Two plates of each cell line were fixed in situ with TCA, to represent a measurement of the cell population for each cell line at the time of drug addition (Tz). 100 uL of compounds in four, 10-fold of ½ log serial dilutions were added to the wells already containing 100 uL of medium. Plates were incubated at 37° C.+5% CO2+95% air+100% relative humidity for an additional 48 hours.\nTo terminate the assay, adherent cells were fixed in situ by the gentle addition of 50 uL of cold 50% (w/v) TCA (final concentration, 10% TCA) and incubated for 60 min at 4° C. For suspension cells, 50 uL of 80% TCA (final concentration, 16% TCA) was used.\nSupernatant was discarded, and the plates were wash five times with tap water and air dried. […]\nRemaining stained cells were solubilized with 10 mM trizma base. Absorbance at 515 nm was measured.\nPercentage growth was calculated using the following equations:\n[formula] [formula] • where Tz=absorbance at time zero, C=absorbance of control growth, Ti=absorbance of test growth in the presence of drug at the five concentration levels."}, "B16 melanoma cells": {"test_system": "B16 melanoma cells", "test": "B16 melanoma allograft in C57BL/6 mice", "format": "in vivo", "details": "40 mg/kg daily subcutaneous injections, 21 days", "method": "In the example, C57BL/6 mice were subcutaneously injected with B16 melanoma cells. Tumor cells were allowed to develop for one week, after that mice were treated with daily subcutaneous injections of vehicle or DW192 (40 mg/kg) for 21 days. FIG. 12A is a plot showing the tumor growth curves."}}}
{"compound": "CC(C)(C)[C@]1(O)C[C@@H]2OC(=O)C[C@@]23C(=O)O[C@@H]2N(CC4C5CC6CC(C5)CC4C6)C(=O)[C@H](OC(=O)c4ccccc4)[C@]213", "note": "(stereo partly drawn) [DW192, (3aS,5aS,8R,8aS,9R,10aS)-6-(((1S,5R,7S)-adamantan-2-yl)methyl)-9-(tert-butyl)-9-hydroxy-2,4,7-trioxooctahydro-4H,9H-furo [3″,2″:2′,3′]cyclopenta[1′,2′:3,4]furo[2,3-b]pyrrol-8-yl benzoate]", "values": [{"measurement": "viability at 50 µM", "setting": "[1]", "value": 48.2, "unit": "%"}, {"measurement": "% Viability (50 uM, 48 h) A549", "setting": "A549 cells [2]", "value": 53.19, "unit": "%"}, {"measurement": "viability at 50 µM", "setting": "A549 cells [2]; Homo sapiens, A549, 48 h, read-out: % Viability (50 uM, 48 h) A549", "value": 53, "unit": "%"}, {"measurement": "viability at 50 µM", "setting": "Jurkat cells [3]; Homo sapiens, Jurkat, 48 h, CCK-8, read-out: % Viability (50 uM, 48 h) Jurkat", "value": 43, "unit": "%"}, {"measurement": "% Viability (50 uM, 48 h) Jurkat", "setting": "Jurkat cells [3]; CCK-8, 50 µM", "value": 43.26, "unit": "%"}, {"measurement": "IC50", "setting": "A549 cells [4]; 48 hours", "value": 16.4, "unit": "µM"}, {"measurement": "IC50", "setting": "A549 cells [4]; Homo sapiens, A549, 48 h", "value": 21.9, "unit": "µM"}, {"measurement": "IC50", "setting": "KP-1 cells", "value": 15.8, "unit": "µM"}, {"measurement": "IC50", "setting": "MCF-7 cells", "value": 19.6, "unit": "µM"}, {"measurement": "IC50", "setting": "Jurkat cells [5]", "value": 21.9, "unit": "µM"}, {"measurement": "cytotoxic effect across the NCI-60 cell line panel", "setting": "NCI-60 cell line panel; 10 μM", "value": "exhibits cytotoxic effects towards multiple cell lines of different cancer type"}, {"measurement": "lethality", "setting": "NCI-60 cell line panel; COL0205 (colon cancer), 10 μM", "value": 66.18, "unit": "%"}, {"measurement": "inhibition at 10 µM", "setting": "NCI-60 cell line panel; Homo sapiens, HOP-62, HOP62 (NSCLC), read-out: growth inhibition", "value": 50.2, "unit": "%"}, {"measurement": "tumor growth and size", "setting": "B16 melanoma cells", "value": "significantly reduced the growth and size of melanoma tumors"}]}
